We go through 30 molecules from patent publication US12570675B2, “Boronic acid compounds” (LG CHEM, LTD., priority 2020, dated 2026).

The assay has as its target Proteasome chymotrypsin-like activity (S26 protein from RPMI8226 cells) (Homo sapiens, UniProt P28074). In kind it is biochemical. The conditions noted are these: S26 protein from RPMI8226 cell extract 2 ug/well, substrate 20 uM, 37° C., 90 minutes; read-out: Proteasome chymotrypsin-like activity inhibition IC50. In a few lines:
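S26 proteasome fraction from homogenized RPMI8226 myeloma cells in 20 mM Tris-HCl pH 8.0 (2 ug extract/well) incubated 90 min at 37 °C with compound serially diluted from 10 uM (0.5% DMSO).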

For orientation: IC50 means the midpoint of a concentration-inhibition curve.

Structures are written as SMILES.

Sequence of Proteasome chymotrypsin-like activity (S26 protein from RPMI8226 cells) (P28074 60-263 limits assumed): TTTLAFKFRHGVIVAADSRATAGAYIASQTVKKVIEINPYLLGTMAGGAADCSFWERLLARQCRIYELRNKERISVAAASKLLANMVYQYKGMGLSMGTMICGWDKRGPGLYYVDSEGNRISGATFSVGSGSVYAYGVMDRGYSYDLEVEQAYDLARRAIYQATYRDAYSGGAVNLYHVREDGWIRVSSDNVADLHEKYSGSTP

Take `CC(C)C[C@H](NC(=O)C1(Cc2ccccc2)CC(CNC(=O)c2cnccn2)=NO1)B(O)O` (stereo partly drawn) [Example 106, ((1R)-1-(5-benzyl-3-((pyrazin-2-carboxamido)methyl)-4,5-dihydroisoxazol-5-carboxamido)-3-methylbutyl)boronic acid]: the IC50 was less than 10 nM.
`CC(C)C[C@H](NC(=O)C1CC(c2cccc(-c3ccccc3)n2)=NO1)B(O)O` (stereo partly drawn) [Example 25, ((1R)-3-methyl-1-(3-(6-phenylpyridin-2-yl)-4,5-dihydroisoxazol-5-carboxamido)butyl)boronic acid]: the IC50 was less than 100 nM.
The result for `CC(C)C[C@H](NC(=O)C1CC(c2cccc(C(C)(C)C)c2)=NO1)B(O)O` (stereo partly drawn) [Example 14, ((1R)-1-(3-(3-(tert-butyl)phenyl)-4,5-dihydroisoxazol-5-carboxamido)-3-methylbutyl)boronic acid] reads less than 250 nM; that for `COc1cccc(CC2(C(=O)N[C@@H](CC(C)C)B(O)O)CC(CNC(=O)c3ccnn3C(C)C)=NO2)c1` (stereo partly drawn) [Example 239, ((1R)-1-(3-((1-isopropyl-1H-pyrazol-5-carboxamido)methyl)-5-(3-methoxybenzyl)-4,5-dihydroisoxazol-5-carboxamido)-3-methylbutyl)boronic acid], less than 10 nM; that for `CCC1(C(=O)N[C@@H](CC(C)C)B(O)O)CC(c2ccccc2)=NO1` (stereo partly drawn) [Example 4, ((1R)-1-(5-ethyl-3-phenyl-4,5-dihydroisoxazol-5-carboxamido)-3-methylbutyl)boronic acid], greater than 1000 nM.
For the molecule `O=C(N[C@@H](Cc1ccccc1)B(O)O)C1(Cc2ccccc2)CC(COc2cccc3ccccc23)=NO1` (stereo partly drawn) [Example 279, ((1R)-1-(5-benzyl-3-((naphthalen-1-yloxy)methyl)-4,5-dihydroisoxazol-5-carboxamido)-2-phenylethyl)boronic acid], the IC50 was less than 10 nM.
Consider `CC(C)C[C@H](NC(=O)C1(Cc2cccc(Cl)c2)CC(CNC(=O)c2cc(C(C)C)on2)=NO1)B(O)O` (stereo partly drawn) [Example 223, ((1R)-1-(5-(3-chlorobenzyl)-3-((5-isopropylisoxazol-3-carboxamido)methyl)-4,5-dihydroisoxazol-5-carboxamido)-3-methylbutyl)boronic acid], for which the half-maximal inhibitory concentration (IC50) is less than 10 nM.
The result for `CC(C)C[C@H](NC(=O)C1(C(F)(F)c2ccccc2)CC(CNC(=O)c2nccc3ccccc23)=NO1)B(O)O` (stereo partly drawn) [Example 155, ((1R)-1-(5-(difluoro(phenyl)methyl)-3-((isoquinolin-1-carboxamido)methyl)-4,5-dihydroisoxazol-5-carboxamido)-3-methylbutyl)boronic acid] reads less than 25 nM; that for `CC(C)C[C@H](NC(=O)C1CC(C(=O)Nc2cccc(Cl)c2)=NO1)B(O)O` (stereo partly drawn) [Example 77, ((1R)-1-(3-((3-chlorophenyl)carbamoyl)-4,5-dihydroisoxazol-5-carboxamido)-3-methylbutyl)boronic acid], less than 250 nM.
For `CC(C)C[C@H](NC(=O)C1(C(C)c2ccccc2)CC(CNC(=O)c2nccc3ccccc23)=NO1)B(O)O` (stereo partly drawn) [Example 136, ((1R)-1-(3-((isoquinolin-1-carboxamido)methyl)-5-(1-phenylethyl)-4,5-dihydroisoxazol-5-carboxamido)-3-methylbutyl)boronic acid], the IC50 is less than 10 nM.
For the molecule `CC(C)C[C@H](NC(=O)C1(Cc2ccccc2)CC(c2cccc(-c3nccc4ccccc34)c2)=NO1)B(O)O` (stereo partly drawn) [Example 36, ((1R)-1-(5-benzyl-3-(3-(isoquinolin-1-yl)phenyl)-4,5-dihydroisoxazol-5-carboxamido)-3-methylbutyl)boronic acid], the IC50 is less than 250 nM.
As for `CC(C)C[C@H](NC(=O)C1(Cc2ccccc2)CC(CNC(=O)C2CCCc3ccccc32)=NO1)B(O)O` (stereo partly drawn) [Example 108, ((1R)-1-(5-benzyl-3-((1,2,3,4-tetrahydronaphthalen-1-carboxamido)methyl)-4,5-dihydroisoxazol-5-carboxamido)-3-methylbutyl)boronic acid], the figure is less than 10 nM.
Turning to `COc1ccc(COCC2=NOC(Cc3ccccc3)(C(=O)N[C@@H](Cc3ccccc3)B(O)O)C2)cc1` (stereo partly drawn) [Example 275, ((1R)-1-(5-benzyl-3-(((4-methoxybenzyl)oxy)methyl)-4,5-dihydroisoxazol-5-carboxamido)-2-phenylethyl)boronic acid], the IC50 is less than 50 nM.
Turning to `CC(C)C[C@H](NC(=O)C1(Cc2ccccc2)CC(CNC(=O)c2ccc(-c3ccccc3)cc2)=NO1)B(O)O` (stereo partly drawn) [Example 94, ((1R)-1-(3-([1,1′-biphenyl]-4-carboxamidomethyl)-5-benzyl-4,5-dihydroisoxazol-5-carboxamido)-3-methylbutyl)boronic acid], the IC50 was less than 10 nM.
The result for `CC(C)C[C@H](NC(=O)C1CC(c2ccc3ccccc3c2)=NO1)B(O)O` (stereo partly drawn) [Example 17, ((1R)-3-methyl-1-(3-(naphthalen-2-yl)-4,5-dihydroisoxazol-5-carboxamido)butyl)boronic acid] reads less than 500 nM; that for `Cc1cccc(COCC2=NOC(Cc3ccccc3)(C(=O)N[C@@H](Cc3ccccc3)B(O)O)C2)c1` (stereo partly drawn) [Example 271, ((1R)-1-(5-benzyl-3-(((3-methylbenzyl)oxy)methyl)-4,5-dihydroisoxazol-5-carboxamido)-2-phenylethyl)boronic acid], less than 10 nM.
The result for `COCC1(C(=O)N[C@@H](CC(C)C)B(O)O)CC(CNC(=O)c2nccc3ccccc23)=NO1` (stereo partly drawn) [Example 192, ((1R)-1-(3-((isoquinolin-1-carboxamido)methyl)-5-(methoxymethyl)-4,5-dihydroisoxazol-5-carboxamido)-3-methylbutyl)boronic acid] reads less than 10 nM; that for `CC(C)C[C@H](NC(=O)C1(Cc2ccccc2)CC(CNC(=O)c2ccnn2C)=NO1)B(O)O` (stereo partly drawn) [Example 176, ((1R)-1-(5-benzyl-3-((1-methyl-1H-pyrazol-5-carboxamido)methyl)-4,5-dihydroisoxazol-5-carboxamido)-3-methylbutyl)boronic acid], less than 25 nM.
As for `CC(C)C[C@H](NC(=O)C1CC(c2cccc(Oc3ccccc3)c2)=NO1)B(O)O` (stereo partly drawn) [Example 40, ((1R)-3-methyl-1-(3-(3-phenoxyphenyl)-4,5-dihydroisoxazol-5-carboxamido)butyl)boronic acid], the IC50 is less than 500 nM.
For the molecule `COc1cccc(C(=O)NCC2=NOC(Cc3ccccc3)(C(=O)N[C@@H](Cc3ccccc3)B(O)O)C2)c1` (stereo partly drawn) [Example 285, ((1R)-1-(5-benzyl-3-((3-methoxybenzamido)methyl)-4,5-dihydroisoxazol-5-carboxamido)-2-phenylethyl)boronic acid], the IC50 is less than 10 nM.
For the molecule `CC(C)C[C@H](NC(=O)C1CC(c2ccc3ncccc3c2)=NO1)B(O)O` (stereo partly drawn) [Example 30, ((1R)-3-methyl-1-(3-(quinolin-6-yl)-4,5-dihydroisoxazol-5-carboxamido)butyl)boronic acid], the IC50 is less than 1000 nM.
As for `CC(C)C[C@H](NC(=O)C1CC(c2ccc(Oc3ccccn3)cc2)=NO1)B(O)O` (stereo partly drawn) [Example 42, ((1R)-3-methyl-1-(3-(4-(pyridin-2-yloxy)phenyl)-4,5-dihydroisoxazol-5-carboxamido)butyl)boronic acid], the IC50 is less than 250 nM.
Consider `CC(C)C[C@H](NC(=O)C1(Cc2ccccc2)CC(CNC(=O)c2ccnc3c2ccn3C)=NO1)B(O)O` (stereo partly drawn) [Example 210, ((1R)-1-(5-benzyl-3-((1-methyl-1H-pyrrolo[2,3-b]pyridin-4-carboxamido)methyl)-4,5-dihydroisoxazol-5-carboxamido)-3-methylbutyl)boronic acid], for which the IC50 was less than 10 nM.
For the molecule `CC(C)C[C@H](NC(=O)C1(Cc2cccc(C(F)(F)F)c2)CC(CNC(=O)c2nccc3ccccc23)=NO1)B(O)O` (stereo partly drawn) [Example 215, ((1R)-1-(3-((isoquinolin-1-carboxamido)methyl)-5-(3-(trifluoromethyl)benzyl)-4,5-dihydroisoxazol-5-carboxamido)-3-methylbutyl)boronic acid], the IC50 is less than 10 nM.
As for `CC(C)C[C@H](NC(=O)C1CC(C2CC2)=NO1)B(O)O` (stereo partly drawn) [Example 10, ((1R)-1-(3-cyclopropyl-4,5-dihydroisoxazol-5-carboxamido)-3-methylbutyl)boronic acid], the figure is less than 500 nM.
For `CC(C)C[C@H](NC(=O)C1(Cc2ccccc2)CC(CNC(=O)c2cc(F)c(F)cc2Cl)=NO1)B(O)O` (stereo partly drawn) [Example 163, ((1R)-1-(5-benzyl-3-((2-chloro-4,5-difluorobenzamido)methyl)-4,5-dihydroisoxazol-5-carboxamido)-3-methylbutyl)boronic acid], the IC50 was less than 10 nM.
Take `CC(C)C[C@H](NC(=O)C1(Cc2cccc(Cl)c2)CC(CNC(=O)c2nccc3ccccc23)=NO1)B(O)O` (stereo partly drawn) [Example 175, ((1R)-1-(5-(3-chlorobenzyl)-3-((isoquinolin-1-carboxamido)methyl)-4,5-dihydroisoxazol-5-carboxamido)-3-methylbutyl)boronic acid]: the IC50 was less than 10 nM.
Consider `CC(C)C[C@H](NC(=O)C1CC(CNC(=O)c2cccc3ncccc23)=NO1)B(O)O` (stereo partly drawn) [Example 62, ((1R)-3-methyl-1-(3-((quinolin-5-carboxamido)methyl)-4,5-dihydroisoxazol-5-carboxamido)butyl)boronic acid], for which the IC50 was less than 25 nM.
On to `CC(C)C[C@H](NC(=O)C1CC(Cc2ccc3ccccc3c2)=NO1)B(O)O` (stereo partly drawn) [Example 18, ((1R)-3-methyl-1-(3-(naphthalen-2-ylmethyl)-4,5-dihydroisoxazol-5-carboxamido)butyl)boronic acid], for which the IC50 was less than 500 nM.
On to `COc1cccc(COCC2=NOC(Cc3ccccc3)(C(=O)N[C@@H](Cc3ccccc3)B(O)O)C2)c1` (stereo partly drawn) [Example 273, ((1R)-1-(5-benzyl-3-(((3-methoxybenzyl)oxy)methyl)-4,5-dihydroisoxazol-5-carboxamido)-2-phenylethyl)boronic acid], for which the IC50 is less than 10 nM.
